Laboratory results taken from PubChem BioAssay (NCI).
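How tested: cells in 96-well plates exposed to compound for 48 hours at five concentrations. GI50 is the concentration that inhibits growth by half. Definition used: TGI = concentration required for complete inhibition of growth.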

Tests used:
Assay in all cases: growth of human tumour cells (NCI), 48 h
U251 CNS = system: U251 CNS
BT-549 breast = system: BT-549 breast
MALME-3M melanoma = system: MALME-3M melanoma
SW-620 colon = system: SW-620 colon
PC-3 prostate = system: PC-3 prostate
NCI/ADR-RES ovarian = system: NCI/ADR-RES ovarian
EKVX NSCLC = system: EKVX NSCLC
UO-31 renal = system: UO-31 renal
NCI-H23 lung = system: NCI-H23 lung
DU-145 prostate = system: DU-145 prostate
HL-60(TB) leukemia = system: HL-60(TB) leukemia
TK-10 renal = system: TK-10 renal
NCI-H460 lung = system: NCI-H460 lung
SR leukemia = system: SR leukemia
UACC-257 melanoma = system: UACC-257 melanoma
M14 melanoma = system: M14 melanoma
OVCAR-3 ovarian = system: OVCAR-3 ovarian
SF-268 CNS = system: SF-268 CNS
HT29 colon = system: HT29 colon
SK-MEL-2 melanoma = system: SK-MEL-2 melanoma
KM12 colon = system: KM12 colon
T-47D breast = system: T-47D breast
MDA-MB-435 = system: MDA-MB-435
OVCAR-8 ovarian = system: OVCAR-8 ovarian
A549 NSCLC = system: A549 NSCLC
NCI-H226 lung = system: NCI-H226 lung
SK-MEL-5 melanoma = system: SK-MEL-5 melanoma
RXF 393 renal = system: RXF 393 renal
CCRF-CEM leukemia = system: CCRF-CEM leukemia
HOP-92 NSCLC = system: HOP-92 NSCLC
LOX IMVI melanoma = system: LOX IMVI melanoma
NCI-H522 lung = system: NCI-H522 lung
OVCAR-4 ovarian = system: OVCAR-4 ovarian
CAKI-1 renal = system: CAKI-1 renal
K-562 leukemia = system: K-562 leukemia
HCT-116 colon = system: HCT-116 colon
OVCAR-5 ovarian = system: OVCAR-5 ovarian
IGROV1 ovarian = system: IGROV1 ovarian
MCF7 breast = system: MCF7 breast
RPMI-8226 leukemia = system: RPMI-8226 leukemia
ACHN renal = system: ACHN renal
SNB-19 CNS = system: SNB-19 CNS
HCT-15 colon = system: HCT-15 colon
HCC-2998 colon = system: HCC-2998 colon
SNB-75 CNS = system: SNB-75 CNS
SF-295 CNS = system: SF-295 CNS
SK-MEL-28 melanoma = system: SK-MEL-28 melanoma
SF-539 CNS = system: SF-539 CNS
MOLT-4 leukemia = system: MOLT-4 leukemia
HS 578T breast = system: HS 578T breast
UACC-62 melanoma = system: UACC-62 melanoma
HOP-62 NSCLC = system: HOP-62 NSCLC
MDA-MB-231 breast = system: MDA-MB-231 breast
SK-OV-3 ovarian = system: SK-OV-3 ovarian
786-0 renal = system: 786-0 renal
SN12C renal = system: SN12C renal
A498 renal = system: A498 renal
COLO 205 colon = system: COLO 205 colon

## O=C1/C(=C/c2ccc(O)cc2)COc2ccc(O)c(O)c21
U251 CNS
  GI50: 2620 nM
  TGI: 13900 nM
BT-549 breast
  GI50: 1970 nM
  TGI: 7690 nM
MALME-3M melanoma
  GI50: 1760 nM
  TGI: 4580 nM
SW-620 colon
  GI50: 2110 nM
  TGI: 5360 nM
PC-3 prostate
  GI50: 2480 nM
  TGI: 13000 nM
NCI/ADR-RES ovarian
  GI50: 2910 nM
  TGI: > 100000 nM
EKVX NSCLC
  GI50: 2910 nM
  TGI: > 100000 nM
UO-31 renal
  GI50: 1090 nM
  TGI: 2740 nM
NCI-H23 lung
  GI50: 3970 nM
  TGI: 34700 nM
DU-145 prostate
  GI50: 2190 nM
  TGI: 5690 nM
HL-60(TB) leukemia
  GI50: 1930 nM
  TGI: 7410 nM
TK-10 renal
  GI50: 3120 nM
  TGI: > 100000 nM
NCI-H460 lung
  GI50: 2160 nM
  TGI: 4690 nM
SR leukemia
  GI50: 1100 nM
  TGI: > 100000 nM
UACC-257 melanoma
  GI50: 4500 nM
  TGI: > 100000 nM
M14 melanoma
  GI50: 3430 nM
  TGI: 20100 nM
OVCAR-3 ovarian
  GI50: 2050 nM
  TGI: 5790 nM
SF-268 CNS
  GI50: 2720 nM
  TGI: > 100000 nM
HT29 colon
  GI50: 3520 nM
  TGI: 16900 nM
SK-MEL-2 melanoma
  GI50: 6210 nM
  TGI: 38600 nM
KM12 colon
  GI50: 1990 nM
  TGI: 6040 nM
T-47D breast
  GI50: 3310 nM
  TGI: > 100000 nM
MDA-MB-435
  GI50: 2030 nM
  TGI: 4910 nM
OVCAR-8 ovarian
  GI50: 3510 nM
  TGI: > 100000 nM
A549 NSCLC
  GI50: 3600 nM
  TGI: > 100000 nM
NCI-H226 lung
  GI50: 8370 nM
  TGI: 34800 nM
SK-MEL-5 melanoma
  GI50: 1810 nM
  TGI: 4010 nM
RXF 393 renal
  GI50: 1550 nM
  TGI: 3820 nM
CCRF-CEM leukemia
  GI50: 652 nM
  TGI: 8530 nM
HOP-92 NSCLC
  GI50: 2330 nM
  TGI: 7250 nM
LOX IMVI melanoma
  GI50: 1470 nM
  TGI: 3220 nM
NCI-H522 lung
  GI50: 187 nM
  TGI: 596 nM
OVCAR-4 ovarian
  GI50: 2850 nM
  TGI: 65900 nM
CAKI-1 renal
  GI50: 3020 nM
  TGI: 12900 nM
K-562 leukemia
  GI50: 649 nM
  TGI: > 100000 nM
HCT-116 colon
  GI50: 1760 nM
  TGI: 3410 nM
OVCAR-5 ovarian
  GI50: 2640 nM
  TGI: 7260 nM
IGROV1 ovarian
  GI50: 2450 nM
  TGI: 7320 nM
MCF7 breast
  GI50: 2180 nM
  TGI: > 100000 nM
RPMI-8226 leukemia
  GI50: 499 nM
  TGI: 3680 nM
ACHN renal
  GI50: 1990 nM
  TGI: 4720 nM
SNB-19 CNS
  GI50: 3740 nM
  TGI: > 100000 nM
HCT-15 colon
  GI50: 1310 nM
  TGI: 4070 nM
HCC-2998 colon
  GI50: 3610 nM
  TGI: 13100 nM
SNB-75 CNS
  GI50: 1780 nM
  TGI: > 100000 nM
SF-295 CNS
  GI50: 5360 nM
  TGI: > 100000 nM
SK-MEL-28 melanoma
  GI50: 3810 nM
  TGI: 64600 nM
SF-539 CNS
  GI50: 1820 nM
  TGI: 4970 nM
MOLT-4 leukemia
  GI50: 1990 nM
  TGI: > 100000 nM
HS 578T breast
  GI50: 3120 nM
  TGI: > 100000 nM
UACC-62 melanoma
  GI50: 1990 nM
  TGI: 4360 nM
HOP-62 NSCLC
  GI50: 3980 nM
  TGI: > 100000 nM

## O=[N+]([O-])c1cc([N+](=O)[O-])c(Cl)cc1Cl
U251 CNS
  GI50: 211 nM
  TGI: 476 nM
BT-549 breast
  GI50: 1690 nM
  TGI: 3100 nM
MALME-3M melanoma
  GI50: 2050 nM
  TGI: 4270 nM
PC-3 prostate
  GI50: 1350 nM
  TGI: 2880 nM
NCI/ADR-RES ovarian
  GI50: 1320 nM
  TGI: 2940 nM
EKVX NSCLC
  GI50: 1680 nM
  TGI: 3310 nM
UO-31 renal
  GI50: 340 nM
  TGI: 1480 nM
NCI-H23 lung
  GI50: 1400 nM
  TGI: 3000 nM
DU-145 prostate
  GI50: 1560 nM
  TGI: 2900 nM
HL-60(TB) leukemia
  GI50: 456 nM
  TGI: 2700 nM
TK-10 renal
  GI50: 1650 nM
  TGI: 3160 nM
UACC-257 melanoma
  GI50: 594 nM
  TGI: 2040 nM
M14 melanoma
  GI50: 1730 nM
  TGI: 3590 nM
OVCAR-3 ovarian
  GI50: 1420 nM
  TGI: 2730 nM
SF-268 CNS
  GI50: 1640 nM
  TGI: 3130 nM
SK-MEL-2 melanoma
  GI50: 1830 nM
  TGI: 3440 nM
KM12 colon
  GI50: 1640 nM
  TGI: 3050 nM
T-47D breast
  GI50: 1710 nM
  TGI: 4420 nM
MDA-MB-435
  GI50: 1610 nM
  TGI: 3220 nM
OVCAR-8 ovarian
  GI50: 1270 nM
  TGI: 2910 nM
A549 NSCLC
  GI50: 1640 nM
  TGI: 3270 nM
NCI-H226 lung
  GI50: 2220 nM
  TGI: 5780 nM
SK-MEL-5 melanoma
  GI50: 1790 nM
  TGI: 3680 nM
RXF 393 renal
  GI50: 1680 nM
  TGI: 3090 nM
CCRF-CEM leukemia
  GI50: 217 nM
  TGI: 505 nM
HOP-92 NSCLC
  GI50: 1590 nM
  TGI: 4110 nM
LOX IMVI melanoma
  GI50: 361 nM
  TGI: 1460 nM
MDA-MB-231 breast
  GI50: 1940 nM
  TGI: 3700 nM
SK-OV-3 ovarian
  GI50: 1780 nM
  TGI: 3210 nM
OVCAR-4 ovarian
  GI50: 1810 nM
  TGI: 3230 nM
CAKI-1 renal
  GI50: 188 nM
  TGI: 352 nM
K-562 leukemia
  GI50: 249 nM
  TGI: 642 nM
HCT-116 colon
  GI50: 661 nM
  TGI: 2170 nM
OVCAR-5 ovarian
  GI50: 1780 nM
  TGI: 3600 nM
IGROV1 ovarian
  GI50: 1170 nM
  TGI: 2740 nM
MCF7 breast
  GI50: 1670 nM
  TGI: 4230 nM
786-0 renal
  GI50: 1710 nM
  TGI: 3210 nM
RPMI-8226 leukemia
  GI50: 667 nM
  TGI: 2800 nM
ACHN renal
  GI50: 1620 nM
  TGI: 3290 nM
SNB-19 CNS
  GI50: 1950 nM
  TGI: 3660 nM
HCT-15 colon
  GI50: 1350 nM
  TGI: 3730 nM
SN12C renal
  GI50: 1760 nM
  TGI: 3550 nM
A498 renal
  GI50: 1610 nM
  TGI: 4510 nM
SNB-75 CNS
  GI50: 1510 nM
  TGI: 2920 nM
SF-295 CNS
  GI50: 1750 nM
  TGI: 3630 nM
SK-MEL-28 melanoma
  GI50: 1740 nM
  TGI: 3240 nM
COLO 205 colon
  GI50: 1770 nM
  TGI: 3650 nM
SF-539 CNS
  GI50: 1730 nM
  TGI: 3490 nM
MOLT-4 leukemia
  GI50: 918 nM
  TGI: 4400 nM
HS 578T breast
  GI50: 2380 nM
  TGI: 7560 nM
UACC-62 melanoma
  GI50: 1880 nM
  TGI: 3820 nM
HOP-62 NSCLC
  GI50: 1680 nM
  TGI: 3270 nM
